Data published in article PMC6021367, “Regulated intratumoral expression of IL-12 using a RheoSwitch Therapeutic System® (RTS®) gene switch as gene therapy for the treatment of glioma” (Cancer Gene Therapy, 2018).

Experiments:
GL-261 glioma = assay: Survival in syngeneic mouse GL-261 orthotopic glioma model; format: in vivo, C57BL/6 mice; conditions: temozolomide 300 mg/m^2 qdx5, anti-PD-1 15 mg/m^2 q4dx5
Method: At 5 days prior to treatment initiation, female C57BL/6 (C57BL/6NHsd) mice 6–7 weeks old (Envigo; Indianapolis, IN) were inoculated intracranially with 3 µL of GL-261 murine glioblastoma tumor cells at 1 × 10^5 cells/mouse. Implant coordinates were 1 mm anterior and 2 mm lateral to the bregma, at a depth of 3 mm. Buprenorphine (Reckitt Benckiser Healthcare; UK) was administered to the mice approximately 30 min prior to surgery. After 5 days, mice were randomized into one of the treatment groups. For those mice administered Ad-RTS-mIL-12, the vector was administered through the same bur hole at the coordinates above in a constant volume of 3–5 μL. Veledimex was administered via oral gavage once daily for 14 consecutive days.
(§1) All values are expressed as the mean ± standard error of the mean. Statistical analysis was performed using a one-way analysis of variance with Dunnets post hoc test to compare differences between the groups versus control. Increased survival fractions were studied using Kaplan–Meier survival plot followed with a log-rank and Gehan–Wilcoxon tests to assess the significance of the differences. All statistical analyses were performed using GraphPrism 5 (GraphPad Software, Inc., CA, USA). Differences between groups were considered significant when P < 0.05. Pharmacokinetics and tissue levels of veledimex was determined using non-compartmental analysis module of the pharmacokinetic software Phoenix 64 WinNonlin.
In this model, each C57BL/6 mouse received 1 × 10^5 GL-261 glioma cells via intracranial injection ~2 mm distal to the intersection of the coronal and sagittal suture. On day 5, the animals were randomly assigned to one of the treatment groups. Animals were monitored for survival.
1 × 10^5 GL-261 glioma cells were administered into the brain. Separate groups of 12 C57BL/6 mice each were randomly assigned to one of the treatment groups. On day 1 animals were administered 1 × 10^5 GL-261 glioma cells intracranially. On day 5, Ad-RTS-mIL-12 at 5 × 10^9 vp+veledimex PO at 1–30 mg/m^2/day PO was administered for 14 consecutive days and the time to disease progression and death was studied. […] All values are expressed as the mean for >12 animals per group.

[1] = Brain veledimex level in in vivo mechanistic study (increasing vector dose, fixed veledimex dose); design: species or system C57BL/6 mice; conditions: mean ± SEM
Method: (§2) Brain tumor, plasma and cerebrospinal fluid (CSF) samples were analyzed for veledimex using liquid chromatography/tandem mass spectrometry method. Brain tumor samples were homogenized in homogenization solution (10:90/v:v/acetonitrile:0.1% Tween 80 in water) with ratio of 1 g to 9 mL and proteins precipitated. Veledimex concentrations were calculated with a Quadratic 1/x concentration weighting linear regression over concentration ranges of 0.0500 to 50 ng/mL using deuterated (D3) veledimex as an internal standard.
In this study mice were administered Ad-RTS-mIL-12 1 × 10^8 to 5 × 10^9 vp intracranial at the coordinates stated above with veledimex administered gavage at a fixed dose of 100 mg/m^2/day PO, and brain veledimex, viral copy number and the ability to turn on the switch to elicit local production of IL-12 mRNA and IL-12 protein expressions were assessed. […] The 5 × 10^9 vp dose was chosen for all subsequent studies.

[2] = Plasma and CSF pharmacokinetics of veledimex in cynomolgus monkey; format: in vivo; conditions: cynomolgus monkeys
Method: as §2, §1
A single oral dose of veledimex at 120 mg was administered to six cynomolgus monkeys (3/gender) and plasma and CSF levels were assessed through 48 h post treatment. Since no gender-related differences were observed, the data from male and female animals were pooled.

[3] = Plasma, CSF and brain pharmacokinetics of veledimex in mouse; format: in vivo, C57BL/6 mice
Method: as §2, §1
Veledimex was administered to separate groups of C57BL/6 mice at a single dose via oral gavage (PO) at 225 mg/m^2. Terminal blood and CSF and brain samples were collected at 1, 2, 4, 6, 24 and 48 h post dose.

[4] = C57BL/6 mice, single oral dose 225 mg/m^2, CSF
[5] = C57BL/6 mice, single oral dose 225 mg/m^2, brain

Molecule: Cn1nnc2c(C(N)=O)ncn2c1=O [temozolomide]
- median survival (GL-261 glioma; bevacizumab 30 mg/m^2 biwk ×3): 33 days
- animals surviving to terminal killing (GL-261 glioma; bevacizumab 30 mg/m^2 biwk ×3, day 85): 14%
- tumor at terminal killing (GL-261 glioma): all mice having tumor present

Molecule: CCC[C@@H](N(NC(=O)c1cccc(OC)c1CC)C(=O)c1cc(C)cc(C)c1)C(C)(C)C [veledimex]
- Brain veledimex Cmax ([1]; veledimex 100 mg/m^2/day PO + Ad-RTS-mIL-12 1 × 10^8 vp intracranial): 515 ± 53 ng/g
- Brain veledimex Cmax ([1]; veledimex 100 mg/m^2/day PO + Ad-RTS-mIL-12 1 × 10^9 vp intracranial): 311 ± 99 ng/g
- Brain veledimex Cmax ([1]; veledimex 100 mg/m^2/day PO + Ad-RTS-mIL-12 5 × 10^9 vp intracranial): 378 ± 68 ng/g
- Blood–brain barrier crossing ([2]; orally administered): crosses the blood–brain barrier
- AUC0-t ratio between CSF and plasma ([2]; single oral dose 120 mg): 0.7 ± 0.2
- veledimex brain uptake ([2]; single oral dose 120 mg): ~ 1%
- AUC0-t in CSF ([2]; single oral dose 120 mg, CSF): 42.5 ± 17.4 ng·h/mL
- Cmax in CSF ([2]; single oral dose 120 mg, CSF): 2.07 ± 0.91 ng/mL
- AUC0-t in plasma ([2]; single oral dose 120 mg, plasma): 5887 ± 2203 ng·h/mL
- Cmax in plasma ([2]; single oral dose 120 mg, plasma, males and females pooled): 327 ± 142 ng/mL
- mean plasma Tmax ([2]; single oral dose 120 mg, post dose): ~ 4 h
- Cmax and AUC0-t ratio between CSF and plasma ([3]; C57BL/6 mice, single oral dose 225 mg/m^2): 0.34%
- CSF AUC0-t [3, 4]: 466 ng·h/mL
- CSF Cmax [3, 4]: 14 ng/mL
- AUC0-t in the brain [3, 5]: 25325 ng·h/mL
- Cmax in the brain [3, 5]: 1794 ng/mL
- Cmax in plasma ([3]; C57BL/6 mice, single oral dose 225 mg/m^2, plasma): 4153 ng/mL
- Blood–brain barrier crossing ([3]; mice, orally administered): crosses the blood–brain barrier

Molecule: Bevacizumab
- median survival (GL-261 glioma; bevacizumab 30 mg/m^2 biwk ×3): 20 days
